Reference: US6410792B1, “Amide derivatives and methods for using the same as selective neuropeptide Y receptor antagonists” (Bayer Corporation, priority 1997, dated 2002)

Legend:
Human NPY1 receptor = molecular target: T1, Human NPY1 receptor (Homo sapiens, UniProt P25929); test: Human NPY1 receptor binding assay ([125I]PYY, SK-N-MC cells); conditions: [125I]PYY, SK-N-MC cells; read-out: hNPYI IC50
T1 construct: host or cells: SK-N-MC cells
T1 sequence (P25929 1-384): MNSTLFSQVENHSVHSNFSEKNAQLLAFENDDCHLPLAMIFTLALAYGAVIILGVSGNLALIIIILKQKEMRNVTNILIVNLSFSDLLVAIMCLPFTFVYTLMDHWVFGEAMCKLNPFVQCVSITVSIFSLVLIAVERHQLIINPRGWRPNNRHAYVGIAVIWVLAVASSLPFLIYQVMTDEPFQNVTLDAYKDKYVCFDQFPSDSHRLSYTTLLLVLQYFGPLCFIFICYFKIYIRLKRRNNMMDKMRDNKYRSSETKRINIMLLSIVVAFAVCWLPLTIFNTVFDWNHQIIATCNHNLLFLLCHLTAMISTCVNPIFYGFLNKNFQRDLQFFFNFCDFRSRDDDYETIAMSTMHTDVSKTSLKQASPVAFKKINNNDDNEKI
Procedure, shortened: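 Whole-cell competition with ~50 pM [125I]PYY on SK-N-MC monolayers, 3 h at room temperature after 30 min preincubation in HEPES-buffered (pH 7.3) serum-free DMEM containing protease inhibitors. Gamma counting of cell lysates; 1 μM NPY gave nonspecific binding.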

Y2 receptor = molecular target: T2, Y2 receptor (Homo sapiens, UniProt P49146); test: Y2 receptor binding assay ([125I]PYY, membrane protein); conditions: [125I]PYY, membrane protein; read-out: hNPY2 IC50
T2 sequence (P49146 1-381): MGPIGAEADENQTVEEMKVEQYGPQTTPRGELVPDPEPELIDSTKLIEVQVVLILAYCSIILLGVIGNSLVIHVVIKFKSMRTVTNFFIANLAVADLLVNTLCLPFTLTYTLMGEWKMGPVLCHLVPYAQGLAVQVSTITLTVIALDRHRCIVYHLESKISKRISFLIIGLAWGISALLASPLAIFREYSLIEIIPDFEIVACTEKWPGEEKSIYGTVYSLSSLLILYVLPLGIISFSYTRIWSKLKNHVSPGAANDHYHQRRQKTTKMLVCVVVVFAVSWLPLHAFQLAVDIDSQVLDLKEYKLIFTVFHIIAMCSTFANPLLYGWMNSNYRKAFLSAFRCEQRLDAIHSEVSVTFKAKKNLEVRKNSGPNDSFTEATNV
Procedure, shortened: (§1)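 Filtration binding with membrane protein and drug dilution, 2 h at room temperature with mixing, radioactivity counted by gamma or scintillation. Y2: 25 pM [125I]PYY in Krebs-Ringer bicarbonate pH 7.4 with 0.01% BSA, nonspecific by 1 μM NPY. Y4/PP1: 50 pM [125I]hPP in HEPES-buffered saline pH 7.4 with protease inhibitors and 0.3% BSA, nonspecific by 1 μM hPP.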

human Y4/PP1 receptor = human Y4/PP1 receptor (Homo sapiens, UniProt P50391); test: Human Y4/PP1 receptor binding assay ([125I]human PP, membrane protein); conditions: [125I]human PP, membrane protein; read-out: hNPY4 IC50
human Y4/PP1 receptor, sequence (P50391 whole entry): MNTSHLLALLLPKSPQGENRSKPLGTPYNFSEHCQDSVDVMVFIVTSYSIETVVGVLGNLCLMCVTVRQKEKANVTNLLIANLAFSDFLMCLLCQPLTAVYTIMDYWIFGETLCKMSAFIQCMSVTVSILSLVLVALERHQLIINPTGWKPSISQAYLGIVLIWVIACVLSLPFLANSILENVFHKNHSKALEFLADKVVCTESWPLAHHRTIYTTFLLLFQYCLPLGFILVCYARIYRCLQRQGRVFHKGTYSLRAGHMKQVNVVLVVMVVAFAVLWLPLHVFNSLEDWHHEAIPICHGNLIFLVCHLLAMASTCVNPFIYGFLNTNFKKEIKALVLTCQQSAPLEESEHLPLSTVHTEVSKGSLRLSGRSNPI
Procedure, shortened: as §1

Human NPY5 receptor = molecular target: T3, Human NPY5 receptor (Homo sapiens, UniProt Q15761); test: Human NPY5 receptor binding assay ([125I]PYY, membrane protein); conditions: [125I]PYY, read-out: hNPY5 IC50
T3 sequence (Q15761 1-445): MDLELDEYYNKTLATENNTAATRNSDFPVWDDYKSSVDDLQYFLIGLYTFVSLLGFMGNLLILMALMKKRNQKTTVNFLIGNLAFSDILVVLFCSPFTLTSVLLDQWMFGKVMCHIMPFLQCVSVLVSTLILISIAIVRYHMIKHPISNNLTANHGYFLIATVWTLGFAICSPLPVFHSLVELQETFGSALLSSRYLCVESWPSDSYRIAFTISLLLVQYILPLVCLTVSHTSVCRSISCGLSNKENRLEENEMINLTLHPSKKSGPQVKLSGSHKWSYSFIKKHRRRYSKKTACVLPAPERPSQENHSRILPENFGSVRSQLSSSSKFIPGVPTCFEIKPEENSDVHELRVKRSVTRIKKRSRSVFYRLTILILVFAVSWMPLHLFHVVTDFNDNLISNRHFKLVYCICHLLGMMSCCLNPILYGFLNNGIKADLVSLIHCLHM
Procedure, shortened: (§2)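 Radioligand displacement: 75-100 pM [125I]PYY (porcine), membranes, drug dilution; 2 h, RT, mixing; 25 mM Tris pH 7.4 with 0.1% BSA, 0.5 mg/ml bacitracin. NSB 1 μM PYY. Filtration on PEI-treated GF/C, ice-cold buffer wash, gamma or scintillation counting.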

Rat NPY5 receptor = molecular target: T4, Rat NPY5 receptor (Rattus norvegicus, UniProt Q63634); test: Rat NPY5 receptor binding assay ([125I]PYY, membrane protein); conditions: [125I]PYY, read-out: rNPY5 IC50
T4 sequence (Q63634 1-445): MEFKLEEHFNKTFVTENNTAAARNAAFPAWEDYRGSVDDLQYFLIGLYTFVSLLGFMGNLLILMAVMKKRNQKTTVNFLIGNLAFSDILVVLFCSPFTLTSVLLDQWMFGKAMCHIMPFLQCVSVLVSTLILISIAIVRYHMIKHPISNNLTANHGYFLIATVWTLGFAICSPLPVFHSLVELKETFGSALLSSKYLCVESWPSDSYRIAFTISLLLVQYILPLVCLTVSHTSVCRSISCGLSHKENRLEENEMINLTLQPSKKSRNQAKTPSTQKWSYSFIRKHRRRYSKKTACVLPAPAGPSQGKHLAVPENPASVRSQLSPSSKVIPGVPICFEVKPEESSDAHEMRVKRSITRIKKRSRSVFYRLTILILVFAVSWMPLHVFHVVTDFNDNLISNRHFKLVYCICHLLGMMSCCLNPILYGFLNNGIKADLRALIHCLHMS
Procedure, shortened: as §2

| IC50 (Human NPY1 receptor) | IC50 (Y2 receptor) | IC50 (human Y4/PP1 receptor) | IC50 (Human NPY5 receptor) | IC50 (Rat NPY5 receptor) | melting point | Structure (SMILES) |
| --- | --- | --- | --- | --- | --- | --- |
| > 5 µM | > 5 µM | > 5 µM | 0.1 µM |  | 182 to 183 °C | O=C(CN1CCC(n2c(=O)[nH]c3ccccc32)CC1)Nc1ccc(Cc2ccccc2)cc1 [Compound 258, N-(4-Benzyl-phenyl)-2-[4-(2-oxo-2,3-dihydro-benzoimidazol-1-yl)-piperidin-1-yl]-acetamide] |
| > 5 µM | > 5 µM | > 5 µM | 0.014 µM |  | 168 to 177 °C | CC(C)OC(=O)c1ccc(NC(=O)CN2CCC(n3c(=O)[nH]c4ccccc43)CC2)cc1 [Compound 260] |
| > 5 µM | > 5 µM | > 5 µM | 0.59 µM |  | 164 to 165 °C | CCOC(=O)Cc1ccc(NC(=O)CN2CCC(n3c(=O)[nH]c4ccccc43)CC2)cc1 [Compound 261, (4-{2 [4-(2-Oxo-2,3-dihydro-benzoimidazol-1-yl)-piperidin-1-yl]-acetylamino}-phenyl)-acetic acid ethyl ester] |
| > 5 µM | > 5 µM | > 5 µM | 0.79 µM |  | 234 to 235 °C | O=C(CN1CCC(n2c(=O)[nH]c3ccccc32)CC1)Nc1ccc(C=Cc2ccccc2)cc1 [Compound 262, 2-[4-(2-Oxo-2,3-dihydro-benzoimidazol-1-yl)-piperidin-1-yl]-N-(4-styryl-phenyl)-acetamide] |
| > 5 µM | > 5 µM | > 5 µM | 0.0005 µM | 0.0004 µM | 176 °C | O=C(CN1CCC(n2c(=O)[nH]c3ccccc32)CC1)Nc1ccc2c(c1)-c1ccccc1C2=O [Compound 266, 2-[4-(2-Oxo-2,3-dihydro-benzoimidazol-1-yl)-piperidin-1-yl]-N-(9-oxo-9H-fluoren-3-yl)-acetamide] |
| > 5 µM | > 5 µM | > 5 µM | 0.13 µM | 0.12 µM | 134 to 135 °C | O=C(CN1CCC(n2c(=O)[nH]c3ccccc32)CC1)Nc1cccc(C(=O)c2ccccc2)c1 [Compound 268, N-(3-Benzoyl-phenyl)-2-[4-(2-oxo-2,3-dihydro-benzoimidazol-1-yl)-piperidin-1-yl]-acetamide] |
| > 5 µM | > 5 µM | > 5 µM | > 10 µM | > 10 µM | 250 to 253 °C | CN(C(=O)CN1CCC(n2c(=O)[nH]c3ccccc32)CC1)c1ccc(C2CCCCC2)cc1 [Compound 270, N-(4-Cyclohexyl-phenyl)-N-methyl-2-[4-(2-oxo-2,3-dihydro-benzoimidazol-1-yl)-piperidin-1-yl]-acetamide] |
| > 5 µM | > 5 µM | > 5 µM | 0.028 µM | 0.012 µM | 148 to 150 °C | CC(C(=O)Nc1ccc(C2CCCCC2)cc1)N1CCC(n2c(=O)[nH]c3ccccc32)CC1 (stereo not shown) [Compound 278, N-(4-Cyclohexyl-phenyl)-2-[4-(2-oxo-2,3-dihydro-benzoimidazol-1-yl)-piperidin-1-yl]-propionamide] |
| > 5 µM | > 5 µM | > 5 µM | 0.13 µM | 0.068 µM | 144 to 148 °C | CC(C(=O)Nc1ccc(C(C)(C)C)cc1)N1CCC(n2c(=O)[nH]c3ccccc32)CC1 (stereo not shown) [Compound 279] |

The next lines start with the compound.

| Structure (SMILES) | IC50 (Human NPY1 receptor) | IC50 (Y2 receptor) | IC50 (human Y4/PP1 receptor) | IC50 (Human NPY5 receptor) | IC50 (Rat NPY5 receptor) | melting point |
| --- | --- | --- | --- | --- | --- | --- |
| O=C(CN1CCCCC1)Nc1ccc(C2CCCCC2)cc1 [Compound 252, N-(4-Cyclohexyl-phenyl)-2-(piperidine)-acetamide] | > 5 µM | > 5 µM | > 5 µM | 0.94 µM | 0.63 µM | 118 to 119 °C |
| O=C(CN1CCC2(CC1)C(=O)NCN2c1ccccc1)Nc1ccc(C2CCCCC2)cc1 [Compound 269, N-(4-Cyclohexyl-phenyl)-2-(4-oxo-1-phenyl-1,3,8-triaza-spiro[4.5]dec-8-yl)-acetamide] | > 5 µM | > 5 µM | > 5 µM | 0.79 µM |  | 117 to 118 °C |
| O=C(CN1CCCCC1)Nc1ccc(-c2ccccc2)cc1 [Compound 271, N-Biphenyl-4-yl-2-piperidin-1-yl-acetamide] | > 5 µM | > 5 µM | > 5 µM | 5.4 µM | 2.9 µM | 102 to 103 °C |
| O=C(CN1CCN(c2ccccc2)CC1)Nc1ccc(C2CCCCC2)cc1 [Compound 272, N-(4-Cyclohexyl-phenyl)-2-(4-phenyl-piperazin-1-yl)-acetamide] | > 5 µM | > 5 µM | > 5 µM | 0.117 µM | 0.21 µM | 195 to 196 °C |
| O=C(CNC(c1ccccc1)c1ccccc1)Nc1ccc(C2CCCCC2)cc1 [Compound 273, 2-(Benzhydryl-amino)-N-(4-cyclohexyl-phenyl)-acetamide] | > 5 µM |  | > 5 µM | 7 µM | 6.5 µM | 132 to 133 °C |
| O=C(CN1CCC(NC(=O)Nc2ccccc2)CC1)Nc1ccc(C2CCCCC2)cc1 [Compound 274, N-(4-Cyclohexyl-phenyl)-2-[4-(3-phenyl-ureido)-piperidin-1-yl]-acetamide] | > 5 µM |  | > 5 µM | 4.8 µM | 1.5 µM | 222 to 223 °C |
| CC(C)N(CCNC(=O)CN1CCC(n2c(=O)[nH]c3ccccc32)CC1)C(C)C [Compound 281, N-(2-Diisopropylamino-ethyl)-2-[4-(2-oxo-2,3-dihydro-benzoimidazol-1-yl)-piperidin-1-yl]-acetamide] | > 5 µM | > 5 µM | > 5 µM | > 10 µM | > 10 µM | 195 to 196 °C |
| Cl.O=C(CN1CCC(C(=O)c2ccc(F)cc2)CC1)Nc1ccc(C2CCCCC2)cc1 [Compound 292, N-(4-Cyclohexyl-phenyl)-2-[4-(4-fluoro-benzoyl)-piperidin-1-yl]-acetamide; hydrochloride] |  | > 5 µM | > 5 µM | 0.11 µM | 0.084 µM | 258 °C |
